# Measurements from patent publication US20100256160A1, “METHOD OF ADMINISTERING AN ANTITUMOR COMPOUND” (NERVIANO MEDICAL SCIENCES S.R.L., priority 2006, published 2010).
# Experiments:
# [1] = Pharmacokinetics in phase I trial, 24 hours iv infusion once every two weeks; type: in vivo, human; conditions: patients
# Protocol: (§1) A phase I pharmacological trial was carried out to investigate the iv administration of Compound 1 given in 24 hours infusion once every two weeks in patients with refractory or resistant solid tumours, including lung, colorectal, gastro-oesophageal, cervix, Ewing, renal, head and neck, mesothelioma and cancer of unknown primary.
# Neutropenia was the dose-limiting toxicity for Compound 1 and easily managed. […] Biomarker modulation occurred at ≧500 mg/m^2. […] The recommended dose for Phase II was 500 mg/m^2. Furthermore the protocol was amended to increase the dose up to 750 mg/m^2 with prophylactic treatment with G-CSF.
# [2] = system: histone H3 phosphorylation; test: Histone H3 phosphorylation in skin biopsies of patients, phase I trial 24 hours infusion; type: in vivo, human; conditions: 24 h iv infusion
# Protocol: as §1
# (§2) Forty patients were enrolled. Seven DLs were explored (45, 90, 180, 360, 500, 650 and 580 mg/m^2). […] Except one G3 diarrhea, pyrexia and fatigue in one patient each, all other drug related non-hematological adverse events were G1 or 2 (fatigue, anorexia, nausea, vomiting, and ejection fraction decreased). One DLT (neutropenic infection) in the 360 mg/m^2, 2 DLTs (neutropenic infection and febrile neutropenia) at DL 650 mg/m^2 and 2 DLTs at 580 mg/m^2 (G 3 liver enzyme increase and febrile neutropenia) were reported. The MTD has been exceeded at 650 and 580 mg/m^2.
# [3] = system: patients with refractory or resistant solid tumours; test: Phase I dose escalation trial, 24 hours iv infusion once every two weeks: toxicity and response; type: in vivo
# Protocol: as §1
# This was a dose escalation study. Cohorts of 3-6 patients were sequentially allotted to progressively higher dose levels (DL) of Compound 1 based on the number of dose limiting toxicities (DLTs) observed. As per protocol, definition of DLTs were grade (G) 4 neutropenia lasting >7 days, febrile neutropenia, neutropenic infection, any G3 or 4 non-hematological drug related toxicities during the first cycle of treatment.
# as §2
# [4] = system: patients with advanced/metastatic solid tumors; test: Two-center phase I dose escalation trial, 6-hours IV infusion weekly for 3 consecutive weeks in a 28-day cycle; type: in vivo
# Protocol: The infusion duration was selected to reduce the potential for Cmax related toxicities. Forty patients were treated with doses ranging from 45 to 400 mg/m^2. […] In order to define the recommended dose for phase II, 330 mg/m^2 dose level was investigated.
# [5] = system: patients with hematopoietic malignancies such as relapsed/refractory acute leukemia; test: Phase I study, 3-hour intravenous infusion for three consecutive days every two weeks; type: in vivo, human; conditions: 100, 150, 210, and 280 mg/m^2/daily; ten patients
# Protocol: A phase I pharmacological study to investigate the iv administration of Compound 1 given in a 3-hour intravenous infusion for three consecutive days every two weeks in patients with hematopoietic malignancies such as relapsed/refractory acute leukemia. Ten patients have been enrolled in 4 dose levels (100, 150, 210, and 280 mg/m^2/daily). […] Dose escalation is still proceeding.
# Aurora kinases (AKs) B = Aurora kinases (AKs) B (Homo sapiens, UniProt Q96GD4); test: Inhibitory potency towards Aurora kinase B; type: biochemical
# Aurora kinases (AKs) A = target: T1, Aurora kinases (AKs) A (Homo sapiens, UniProt O14965); test: Inhibitory potency towards Aurora kinase A; type: biochemical
# T1 sequence (O14965 1-403): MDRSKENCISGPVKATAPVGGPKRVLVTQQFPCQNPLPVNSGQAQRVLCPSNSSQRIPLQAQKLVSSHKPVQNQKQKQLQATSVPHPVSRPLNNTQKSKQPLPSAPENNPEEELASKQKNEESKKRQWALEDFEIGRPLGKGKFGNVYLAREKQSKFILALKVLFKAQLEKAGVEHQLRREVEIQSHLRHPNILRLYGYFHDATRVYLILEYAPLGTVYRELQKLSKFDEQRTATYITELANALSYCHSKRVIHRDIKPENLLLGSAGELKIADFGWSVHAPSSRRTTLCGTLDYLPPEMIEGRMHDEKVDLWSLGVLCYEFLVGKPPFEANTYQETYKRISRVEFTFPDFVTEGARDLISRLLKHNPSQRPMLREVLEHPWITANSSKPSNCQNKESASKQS
# Aurora kinases (AKs) C = target: T2, Aurora kinases (AKs) C (Homo sapiens, UniProt Q9UQB9); test: Inhibitory potency towards Aurora kinase C; type: biochemical
# T2 sequence (Q9UQB9 1-309): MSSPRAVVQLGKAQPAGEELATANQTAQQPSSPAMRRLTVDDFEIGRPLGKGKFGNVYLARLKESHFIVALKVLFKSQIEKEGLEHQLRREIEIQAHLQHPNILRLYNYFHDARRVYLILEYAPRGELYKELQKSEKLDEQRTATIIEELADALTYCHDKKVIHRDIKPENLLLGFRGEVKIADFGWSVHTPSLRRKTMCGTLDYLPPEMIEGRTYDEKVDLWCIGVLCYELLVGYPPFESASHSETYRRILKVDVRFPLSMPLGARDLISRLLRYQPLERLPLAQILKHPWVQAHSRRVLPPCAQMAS
# Chain of Aurora kinases (AKs) B (Q96GD4 whole entry): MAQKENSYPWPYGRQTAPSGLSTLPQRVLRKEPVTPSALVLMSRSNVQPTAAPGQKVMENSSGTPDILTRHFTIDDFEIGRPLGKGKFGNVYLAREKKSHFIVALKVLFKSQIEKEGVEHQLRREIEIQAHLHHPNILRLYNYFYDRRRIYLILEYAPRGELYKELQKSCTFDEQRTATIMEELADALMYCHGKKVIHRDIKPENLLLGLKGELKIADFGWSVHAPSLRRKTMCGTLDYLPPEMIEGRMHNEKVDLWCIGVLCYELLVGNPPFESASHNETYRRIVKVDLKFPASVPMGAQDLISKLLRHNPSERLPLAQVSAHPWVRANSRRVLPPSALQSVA
structure (smiles),measurement,setting,value
"CO[C@@H](C(=O)N1Cc2n[nH]c(NC(=O)c3ccc(N4CCN(C)CC4)cc3)c2C1)c1ccccc1 [Compound 1, N-{5-[(2R)-2-methoxy-2-phenylethanoyl]-1,4,5,6-tetrahydropyrrolo[3,4-c]pyrazol-3-yl}-4-(4-methylpiperazin-1-yl)benzamide]",clearance,"[1]; human, in vivo",5 to 7.5 mL/min/kg
same,half-life,"[1]; human, in vivo, read-out: terminal half-life",18 to 30 h
same,pharmacokinetic behavior,[1],dose-proportional and time-independent behavior
same,pharmacokinetic linearity and variability,[1],linear with low inter-individual variability
same,volume of distribution,[1],2-4 times total body water
same,dose at which inhibition of histone H3 phosphorylation (biomarker modulation) was evident,[2],≥ 500 mg/m^2
same,MTD (exceeded at 650 and 580 mg/m^2),[3]; 24 h iv infusion every two weeks,< 580 mg/m^2
same,number of pts with stable disease as best response,[3]; forty patients enrolled,Nine
same,recommended dose for Phase II,"[3]; human, in vivo, iv",500 mg/m^2
same,dose-limiting toxicity,"[3]; in vivo, iv",Neutropenia
same,"non-hematological drug related adverse events, severity","[3]; in vivo, iv",mild or moderate
same,number of stable-disease pts with response duration >6 months,[3]; of the nine pts with stable disease,3
same,uncomplicated grade 3 neutropenia,[4]; 250 mg/m^2,frequently reported
same,drug-related deaths,[4]; 45 to 400 mg/m^2,No drug-related deaths
same,hematological toxicity reported,"[4]; 45 to 400 mg/m^2, 6-hours IV infusion days 1, 8, 15 every 28 days",Uncomplicated neutropenia of short duration
same,"drug-related non hematological toxicities, severity","[4]; G1/G2 diarrhea, nausea, vomiting, fatigue, anorexia and blood pressure increase",mild or moderate
same,number of patients with stable disease as best response,[4]; forty patients treated,Seven
same,number of stable-disease patients with response lasting more than seven months,[4]; of the seven patients with stable disease,four
same,tolerability of regimen,[5],well tolerated
same,inhibitory potency towards Aurora kinase B,Aurora kinases (AKs) B,significant inhibitory potency
same,inhibitory potency towards Aurora kinase A,Aurora kinases (AKs) A,significant inhibitory potency
same,inhibitory potency towards Aurora kinase C,Aurora kinases (AKs) C,significant inhibitory potency
